Results taken from ChEMBL document CHEMBL1201862, “PubChem BioAssay data set” (2004).
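All cell lines were grown in 96-well plates and treated with compound for 48 hours. GI50: concentration for 50% inhibition of growth.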 Calls of active or inactive are those of the source. Cut-off read from the data, not from the text of the source: active = GI50 up to about 1.1 µM and inactive = higher.

Legend:
Assay in all cases: NCI-60 cell line screen, 48 h
PC-3 = test system: PC-3
BT-549 = test system: BT-549
NCI-H23 = test system: NCI-H23
CCRF-CEM = test system: CCRF-CEM
OVCAR-8 = test system: OVCAR-8
DU-145 = test system: DU-145
HOP-92 = test system: HOP-92
OVCAR-5 = test system: OVCAR-5
SR = test system: SR
HL-60 = test system: HL-60
KM12 = test system: KM12
HT-29 = test system: HT-29
RPMI-8226 = test system: RPMI-8226
MCF7 = test system: MCF7
OVCAR-3 = test system: OVCAR-3
NCI-H226 = test system: NCI-H226
HCC 2998 = test system: HCC 2998
SK-MEL-5 = test system: SK-MEL-5

Measured: GI50

CC1CN(c2cc3c(cc2F)c(=O)c(C(=O)O)cn3-c2ccc(N3CCN(C)CC3)cn2)CC(C)N1 (stereo not given)
inactive: PC-3 > 100 µM | BT-549 > 100 µM | NCI-H23 > 100 µM | CCRF-CEM > 100 µM | OVCAR-8 44.5 µM | DU-145 > 100 µM | HOP-92 > 100 µM | OVCAR-5 > 100 µM | SR > 100 µM | HL-60 > 100 µM | KM12 87.5 µM | HT-29 > 100 µM | RPMI-8226 > 100 µM | MCF7 98.9 µM | OVCAR-3 > 100 µM | NCI-H226 > 100 µM

COc1ccc2[nH]c3c(c2c1)CCc1ccccc1-3
inactive: HCC 2998 64.3 µM | PC-3 52.8 µM | BT-549 > 100 µM | NCI-H23 41.7 µM | CCRF-CEM > 100 µM | OVCAR-8 27.7 µM | DU-145 > 100 µM | HOP-92 51.2 µM | OVCAR-5 > 100 µM | SR 84.9 µM | KM12 32.4 µM | HT-29 > 100 µM | MCF7 79.3 µM | SK-MEL-5 > 100 µM | OVCAR-3 > 100 µM | NCI-H226 > 100 µM

CCCCNN
inactive: PC-3 > 100 µM | BT-549 > 100 µM | NCI-H23 > 100 µM | CCRF-CEM 43 µM | OVCAR-8 > 100 µM | DU-145 > 100 µM | OVCAR-5 > 100 µM | SR > 100 µM | HL-60 > 100 µM | KM12 > 100 µM | HT-29 > 100 µM | RPMI-8226 > 100 µM | MCF7 > 100 µM | SK-MEL-5 95.7 µM | OVCAR-3 > 100 µM | NCI-H226 > 100 µM

CNc1ncnc2c1cnn2Cc1cn(COCC(O)CO)nn1 (stereo not given)
inactive: HCC 2998 > 100 µM | PC-3 > 100 µM | BT-549 > 100 µM | NCI-H23 > 100 µM | CCRF-CEM > 100 µM | OVCAR-8 > 100 µM | DU-145 > 100 µM | HOP-92 59.4 µM | OVCAR-5 > 100 µM | HL-60 > 100 µM | KM12 > 100 µM | HT-29 > 100 µM | RPMI-8226 > 100 µM | MCF7 > 100 µM | SK-MEL-5 > 100 µM | OVCAR-3 > 100 µM | NCI-H226 > 100 µM

CC(=O)Oc1ccc(/C=C/C(=O)NCC(NC(=O)/C=C/c2ccc(OC(C)=O)c(OC(C)=O)c2)C(=O)O)cc1OC(C)=O (stereo not given)
inactive: HCC 2998 > 100 µM | PC-3 > 100 µM | BT-549 > 100 µM | NCI-H23 > 100 µM | CCRF-CEM 32 µM | OVCAR-8 > 100 µM | DU-145 > 100 µM | HOP-92 > 100 µM | OVCAR-5 > 100 µM | SR 33.4 µM | KM12 > 100 µM | HT-29 50.8 µM | RPMI-8226 > 100 µM | MCF7 > 100 µM | SK-MEL-5 > 100 µM | OVCAR-3 > 100 µM | NCI-H226 > 100 µM

CN(O)C(=O)CCC(NC(=O)CCC(N)C(=O)O)C(=O)NCC(=O)O (stereo not given)
inactive: HCC 2998 > 100 µM | PC-3 > 100 µM | BT-549 > 100 µM | NCI-H23 > 100 µM | CCRF-CEM > 100 µM | OVCAR-8 > 100 µM | DU-145 > 100 µM | HOP-92 > 100 µM | OVCAR-5 > 100 µM | HL-60 > 100 µM | KM12 > 100 µM | HT-29 > 100 µM | RPMI-8226 > 100 µM | MCF7 > 100 µM | SK-MEL-5 > 100 µM | OVCAR-3 > 100 µM | NCI-H226 > 100 µM

O=C1/C(=C2\Sc3c(ccc(Cl)c3Cl)C2=O)Sc2c1ccc(Cl)c2Cl
inactive: HCC 2998 > 100 µM | PC-3 > 100 µM | BT-549 > 100 µM | NCI-H23 > 100 µM | CCRF-CEM > 100 µM | OVCAR-8 > 100 µM | DU-145 > 100 µM | HOP-92 > 100 µM | OVCAR-5 > 100 µM | SR > 100 µM | KM12 > 100 µM | HT-29 > 100 µM | RPMI-8226 > 100 µM | MCF7 > 100 µM | SK-MEL-5 > 100 µM | OVCAR-3 12.5 µM | NCI-H226 > 100 µM

CCCCn1cnc2c(SC)ncnc21
inactive: HCC 2998 > 100 µM | PC-3 > 100 µM | BT-549 > 100 µM | NCI-H23 > 100 µM | OVCAR-8 > 100 µM | DU-145 > 100 µM | HOP-92 > 100 µM | OVCAR-5 > 100 µM | SR 3.45 µM | KM12 > 100 µM | HT-29 > 100 µM | RPMI-8226 > 100 µM | MCF7 > 100 µM | SK-MEL-5 > 100 µM | OVCAR-3 > 100 µM

c1ccc2c[n+](Cc3ccnc4ccccc34)ccc2c1
inactive: HCC 2998 > 100 µM | PC-3 > 100 µM | BT-549 > 100 µM | NCI-H23 > 100 µM | CCRF-CEM > 100 µM | OVCAR-8 > 100 µM | DU-145 > 100 µM | HOP-92 97.7 µM | OVCAR-5 > 100 µM | SR > 100 µM | KM12 > 100 µM | HT-29 51.8 µM | RPMI-8226 > 100 µM | MCF7 > 100 µM | SK-MEL-5 42.8 µM | OVCAR-3 67 µM | NCI-H226 41.8 µM

C1=N\CCN2CCN(CC/N=C\c3ccccc3OCc3cccc(n3)COc3ccccc3/1)CC2
inactive: PC-3 9.46 µM | BT-549 9.75 µM | NCI-H23 14.6 µM | CCRF-CEM 3.39 µM | OVCAR-8 11.8 µM | DU-145 12.8 µM | HOP-92 3.89 µM | OVCAR-5 9.18 µM | SR 1.71 µM | HL-60 3.16 µM | KM12 8.83 µM | HT-29 8.2 µM | RPMI-8226 2.48 µM | MCF7 1.52 µM | OVCAR-3 1.3 µM

CC(C)(C)OC(=O)C1=C(N)N(Cc2ccccc2)C2(C)C=CC(=O)C=C12 (stereo not given)
inactive: HCC 2998 14.2 µM | PC-3 7.21 µM | BT-549 1.95 µM | NCI-H23 9.29 µM | CCRF-CEM 2.58 µM | OVCAR-8 2.45 µM | DU-145 4.04 µM | HOP-92 2.16 µM | OVCAR-5 18.1 µM | HL-60 1.88 µM | KM12 6.49 µM | HT-29 4.03 µM | RPMI-8226 2.6 µM | MCF7 2.5 µM | SK-MEL-5 4.31 µM | OVCAR-3 3.1 µM | NCI-H226 12.9 µM

C/C(=C\c1ccccc1)C(=O)NCc1ccc(C(=O)NCCc2c[nH]c3ccccc23)cc1
inactive: HCC 2998 16 µM | PC-3 54.6 µM | BT-549 > 100 µM | NCI-H23 80.4 µM | CCRF-CEM 2.39 µM | OVCAR-8 > 100 µM | DU-145 > 100 µM | HOP-92 > 100 µM | OVCAR-5 > 100 µM | SR > 100 µM | KM12 33.2 µM | HT-29 > 100 µM | RPMI-8226 > 100 µM | MCF7 24.3 µM | SK-MEL-5 50.5 µM | OVCAR-3 42 µM | NCI-H226 > 100 µM

COC(=O)c1cc(CC2Cc3cc4c(cc3C2=O)CCC4)cc2c1CCC2 (stereo not given)
inactive: HCC 2998 > 100 µM | PC-3 15.2 µM | BT-549 60 µM | NCI-H23 > 100 µM | CCRF-CEM > 100 µM | OVCAR-8 > 100 µM | DU-145 > 100 µM | OVCAR-5 > 100 µM | SR > 100 µM | HL-60 > 100 µM | KM12 > 100 µM | HT-29 51.8 µM | RPMI-8226 > 100 µM | MCF7 45.8 µM | OVCAR-3 > 100 µM | NCI-H226 > 100 µM

N=C(N)NS(=O)(=O)c1ccc(NC(=O)c2c3ccccc3nc3ccccc23)cc1
inactive: HCC 2998 > 100 µM | PC-3 > 100 µM | BT-549 > 100 µM | NCI-H23 > 100 µM | CCRF-CEM > 100 µM | OVCAR-8 > 100 µM | DU-145 > 100 µM | HOP-92 > 100 µM | OVCAR-5 > 100 µM | SR > 100 µM | KM12 > 100 µM | HT-29 > 100 µM | RPMI-8226 > 100 µM | MCF7 > 100 µM | SK-MEL-5 > 100 µM | OVCAR-3 > 100 µM | NCI-H226 43.1 µM

CCOc1c(OC)cc(-c2nc3n(n2)C(=O)C(CC)S3)cc1OC (stereo not given)
inactive: HCC 2998 > 10 µM | PC-3 > 10 µM | BT-549 > 10 µM | NCI-H23 > 10 µM | CCRF-CEM > 10 µM | OVCAR-8 > 10 µM | DU-145 > 10 µM | OVCAR-5 > 10 µM | SR > 10 µM | HL-60 > 10 µM | KM12 > 10 µM | HT-29 > 10 µM | RPMI-8226 > 10 µM | MCF7 > 10 µM | SK-MEL-5 > 10 µM | OVCAR-3 > 10 µM | NCI-H226 > 10 µM

CC1(C)OC(=O)CC12CCN(Cc1ccccc1)CC2
inactive: PC-3 > 100 µM | BT-549 > 100 µM | NCI-H23 > 100 µM | CCRF-CEM > 100 µM | OVCAR-8 > 100 µM | DU-145 > 100 µM | HOP-92 > 100 µM | OVCAR-5 > 100 µM | SR > 100 µM | HL-60 > 100 µM | HT-29 > 100 µM | RPMI-8226 > 100 µM | MCF7 > 100 µM | SK-MEL-5 > 100 µM | OVCAR-3 > 100 µM | NCI-H226 > 100 µM

Clc1ccccc1-c1nn2c(CCCCCCCCc3nnc4sc(-c5ccccc5Cl)nn34)nnc2s1
inactive: HCC 2998 > 100 µM | PC-3 > 100 µM | BT-549 > 100 µM | NCI-H23 > 100 µM | CCRF-CEM 61.7 µM | OVCAR-8 > 100 µM | DU-145 > 100 µM | HOP-92 > 100 µM | OVCAR-5 > 100 µM | SR > 100 µM | KM12 87.3 µM | HT-29 52.1 µM | RPMI-8226 54 µM | MCF7 52.2 µM | SK-MEL-5 63.1 µM | OVCAR-3 > 100 µM | NCI-H226 > 100 µM
